Measured values reported in patent US20190083455A1, “METHODS AND COMPOSITIONS FOR THE MODULATION OF BETA-ENDORPHIN LEVELS” (The General Hospital Corporation, priority 2014, published 2019).
Several values for one entry are separate records, joined by “and”; a condition that tells them apart may be missing. Equal entries are not always repeated. Structures can show the parent of a compound that is named as a salt.

Tests used:
Type in all cases: in vivo
[1] = tested on: C57Bl/6 mice; test: Somatic symptoms of opiate withdrawal after chronic UV exposure; conditions: 2 mg/kg ip after 6 weeks of daily UV exposure; observed 25 minutes
Method: Mice that had undergone 6 weeks of daily UV exposure or mock exposure were injected (ip) with either 2 mg/kg naloxone or saline, and signs of opioid withdrawal were tabulated as described (Olson et al., 2006). […] Wet dog shake, teeth chatter, and bouts of grooming were measured as occurrence in each 15-second interval. Individual rearing events were counted. Number of fecal pellets at the end of the 25-minute interval was used to quantify diarrhea.

[2] = tested on: C57Bl/6 mice; test: Analgesic threshold testing (von Frey test and hot plate test) during UV/mock regimen; conditions: 10 mg/kg ip 15 min prior to testing; chronically UV-irradiated mice
Description: Mice underwent mechanical and thermal analgesic testing during UV/mock treatment regimens using the von Frey test (Kwan et al., 2006) and the hot plate test respectively (Mogil et al., 1999). In the von Frey test, mice were placed in individual enclosures on an elevated wire mesh rack and the plantar surface of the left hind paw was serially poked with fibers of increasing tensile strength (10 times per fiber at a rate of 1/second) until a paw withdrawal response was elicited on 2/10 pokes. In the hot plate test, mice were placed on a 52° C. hot plate and time to response (paw flutter, paw licking, jumping) was measured. […]
We developed a UV-exposure mouse model in which dorsally-shaved mice received a dose of 50 mJ/cm^2 of UVB, 5 days per week for 6 weeks, an empirically-derived sub-erythemic dose which is approximately equal to 20-30 minutes of ambient midday sun exposure in Florida during the summer for a fair-skinned person of average tanning ability (Fitzpatrick skin phototypes 2-3) (D'Orazio et al., 2006; Technology-Planning-and-Management-Corporation, 2000; US-EPA, 1994). […] We quantified mechanical and thermal nociceptive thresholds over six weeks of daily UV exposure. Mechanical nociception was measured by the von Frey test (Kwan et al., 2006), which exposes fibers of increasing tensile strength to the plantar paw surface to elicit a paw withdrawal response. […]

[3] = tested on: K14-e/e and e/e mice; test: Naloxone-precipitated symptoms of opiate withdrawal in forskolin plus rolipram treated mice; conditions: individual forskolin plus rolipram treated mice, naloxone 2 mg/kg; for Rearing: 25 min; for Jumping: events in 25 min; for Diarrhea: fecal pellets at 25 min; for Paw Tremor / Teeth Chatter / Wet Dog Shake / oming: occurrence per 15 sec interval over 25 min
Method: Female mice were treated with 40 μL of 20%-Forskolin extract daily and 40 μL of rolipram (Sigma) 20 μM in DMSO or vehicle control. Basal blood samples were collected at the beginning of each experiment. After treatment started, blood samples were collected once a week. After 4 weeks of continuous exposure to forskolin and rolipram or vehicle control, mice were injected with saline or naloxone and symptoms of opiate withdrawal were measured for 25 min post injection. Naloxone (St. Luis, Mo.) was diluted in saline at […] and was administrated to mice ˜200 μL, depending on the mass of each mouse (2 mg/kg). Symptoms assigned were wet dog shake (WDS), paw tremor, jumping, bouts of grooming, teeth chatter (TC), rearing and diarrhea. The occurrence in each 15 sec interval of WDS, paw tremor, bouts of grooming and teeth chatter (TC) was used to quantify these parameters. The number of fecal pellets and the individual jumping events at the end of 25 min were quantified for these two factors.
Finally, the functional significance of systemic β-endorphin elevations upon cAMP activation was tested by carrying out behavioral studies on forskolin plus rolipram treated mice.

[4] = tested on: C57Bl/6 mice; test: Straub Tail measurement; conditions: 10 mg/kg ip, scored 15 minutes after injection; day 23 of the UV exposure regimen
Method: Straub Tail measurement was performed as described (Bilbey et al., 1960). Scoring was on a scale of 0-2 according to the angle of elevation of the tail from the horizontal plane (0=tail relaxed and no elevation; 1=tail is rigid and elevated 1-10° from horizontal; 1.5=11-45° elevation and rigidity at the base of the tail; 2=46-90° elevation and rigidity at the base of the tail). At each time point, each mouse was scored every 10 seconds for 1 minute and the final score was the average of these six values. Mice undergoing the six-week UV exposure regimen or mock treatment were scored prior to the start of the regimen, once per week during the regimen, and once per week for 2 weeks following cessation of UV/mock treatment. On day 23 of the regimen, after weekly Straub Tail scoring, mice were injected (intraperitoneal (ip)) with either 10 mg/kg naloxone hydrochloride (Sigma, St. Louis, Mo.) or saline. Mice underwent Straub Tail scoring again 15 minutes following injection.
Exogenous opioids produce a dose-dependent, μ-opioid receptor-mediated contraction of the sacrococcygeus dorsalis muscle at the tail base in rodents, resulting in rigidity and elevation of the tail, a phenomenon called “Straub Tail” (Bilbey et al., 1960). […]

[5] = tested on: β-endorphin; test: Plasma β-endorphin radioimmunoassay in UV/mock irradiated mice; conditions: mice treated twice a week with Naloxone or Saline; daily UV or Mock irradiation
Description: Mice were dorsally shaved two days prior to the start of radiation exposure, then exposed to 50 mJ/cm^2/day of UVB, an empirically determined sub-erythematic dose, 5 days per week (Monday-Friday) for 6 weeks. If there were patches of fur re-growth, mice were re-shaved once every two weeks.
For blood draws, mice were placed in a standard restrainer and tail vein blood was collected in EDTA microvette tubes containing 0.6TIU aprotinin. Mice underwent blood draws prior to the start of radiation exposure, once per week during the radiation exposure regimen, and once per week for two weeks following cessation of the UV regimen. Blood was drawn in the mornings prior to radiation exposure on Fridays.
Tubes of collected blood were maintained on ice until centrifugation at 3500 RPM for 20 minutes at 4° C. Plasma was isolated and samples were stored at −80° C. until β-endorphin measurement. β-endorphin was quantified by radioimmunoassay (Phoenix Pharmaceuticals, Burlingame, Calif.).

For `C=CCN1CC[C@]23c4c5ccc(O)c4O[C@H]2C(=O)CC[C@@]3(O)[C@H]1C5` [naloxone, naloxone hydrochloride], the “signs of opioid withdrawal” value [1] was “elicited many of the classic murine signs of opioid withdrawal”, the “mechanical nociceptive threshold (von Frey)” value [2] was “suppressed the UV-induced increases in mechanical and thermal nociceptive thresholds” and the “thermal nociceptive threshold (hot plate 52° C.)” value [2] was “suppressed the UV-induced increases in mechanical and thermal nociceptive thresholds”. The Rearing ([3]; K14:e/e) was 0, the Jumping ([3]; K14:e/e) was 0 and the Diarrhea ([3]; K14:e/e, hydrochloride) was 0 and 1. The “Paw Tremor” value ([3]; K14:e/e, hydrochloride) was 0 and 2, the “Teeth Chatter” value ([3]; K14:e/e, hydrochloride) was 80 and 107 and the “Wet Dog Shake” value ([3]; K14:e/e, hydrochloride) was 145 and 135. The oming ([3]; K14:e/e, hydrochloride) was 17 and 2, the Rearing ([3]; e/e, hydrochloride) was 0 and 18 and the Jumping ([3]; e/e) was 0. The Diarrhea ([3]; e/e, hydrochloride) was 1 and 2, the “Paw Tremor” value ([3]; e/e, hydrochloride) was 4 and 34 and the “Teeth Chatter” value ([3]; e/e, hydrochloride) was 116 and 75. The “Wet Dog Shake” value ([3]; e/e, hydrochloride) was 120 and 76, the oming ([3]; e/e, hydrochloride) was 13 and 19 and the “Straub Tail score” value [4] was “reversed the Straub Tail phenotype”. For the same compound, the “plasma β-endorphin” value [5] was “no significant effect of Naloxone treatment within either group”.
